Experimental data reported in ChEMBL document CHEMBL1137358, “Synthetic inhibitors of cytochrome P-450 2A6: inhibitory activity, difference spectra, mechanism of inhibition, and protein cocrystallization” (J Med Chem, 2006).
pKi: −log10 of the molar value.

Experiments:
CYP2A6 over CYP2C9 = test: Selectivity for CYP2A6 over CYP2C9; details: human
[1] = (§1) Stability in mouse liver microsome
Cytochrome P450 2C9 = Cytochrome P450 2C9 (Homo sapiens, UniProt P11712); test: Inhibition of human CYP2C9
Chain of Cytochrome P450 2C9 (P11712 whole entry): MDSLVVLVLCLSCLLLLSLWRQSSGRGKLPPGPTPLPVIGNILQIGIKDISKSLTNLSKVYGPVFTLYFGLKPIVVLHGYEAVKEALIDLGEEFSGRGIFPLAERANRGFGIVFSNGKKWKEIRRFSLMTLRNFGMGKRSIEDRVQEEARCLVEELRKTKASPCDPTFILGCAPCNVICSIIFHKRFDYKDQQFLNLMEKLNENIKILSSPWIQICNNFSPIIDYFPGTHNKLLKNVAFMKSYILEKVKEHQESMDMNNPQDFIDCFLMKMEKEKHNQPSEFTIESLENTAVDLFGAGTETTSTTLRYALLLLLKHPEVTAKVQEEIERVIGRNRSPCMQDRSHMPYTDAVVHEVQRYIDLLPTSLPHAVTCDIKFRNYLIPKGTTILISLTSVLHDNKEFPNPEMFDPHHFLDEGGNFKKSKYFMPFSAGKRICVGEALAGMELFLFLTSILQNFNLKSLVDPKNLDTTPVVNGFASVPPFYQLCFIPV

[2] = Stability in human liver microsome
CYP2A6 over CYP3A4 = test: Selectivity for CYP2A6 over CYP3A4; details: human
Cytochrome P450 2E1 = Cytochrome P450 2E1 (Homo sapiens, UniProt P05181); test: Inhibition of human CYP2E1
Chain of Cytochrome P450 2E1 (P05181 whole entry): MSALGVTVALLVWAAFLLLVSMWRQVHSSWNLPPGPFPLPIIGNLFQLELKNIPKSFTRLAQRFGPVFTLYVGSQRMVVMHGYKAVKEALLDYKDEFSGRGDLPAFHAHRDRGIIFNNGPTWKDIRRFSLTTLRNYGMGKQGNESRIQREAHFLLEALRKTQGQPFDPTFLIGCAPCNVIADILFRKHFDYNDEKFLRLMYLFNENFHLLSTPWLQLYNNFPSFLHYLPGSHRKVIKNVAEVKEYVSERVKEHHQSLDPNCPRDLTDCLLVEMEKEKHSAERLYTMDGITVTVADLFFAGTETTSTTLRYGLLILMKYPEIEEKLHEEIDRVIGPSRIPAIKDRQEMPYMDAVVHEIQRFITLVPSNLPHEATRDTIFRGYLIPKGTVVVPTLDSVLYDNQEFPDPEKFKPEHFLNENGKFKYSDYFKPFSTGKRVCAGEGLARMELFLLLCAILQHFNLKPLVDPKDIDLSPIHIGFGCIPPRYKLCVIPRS

CYP2A6 over CYP2B6 = test: Selectivity for CYP2A6 over CYP2B6
CYP2A6 over CYP2E1 = test: Selectivity for CYP2A6 over CYP2E1; details: human
Cytochrome P450 2C19 = Cytochrome P450 2C19 (Homo sapiens, UniProt P33261); test: Inhibition of human CYP2C19
Chain of Cytochrome P450 2C19 (P33261 whole entry): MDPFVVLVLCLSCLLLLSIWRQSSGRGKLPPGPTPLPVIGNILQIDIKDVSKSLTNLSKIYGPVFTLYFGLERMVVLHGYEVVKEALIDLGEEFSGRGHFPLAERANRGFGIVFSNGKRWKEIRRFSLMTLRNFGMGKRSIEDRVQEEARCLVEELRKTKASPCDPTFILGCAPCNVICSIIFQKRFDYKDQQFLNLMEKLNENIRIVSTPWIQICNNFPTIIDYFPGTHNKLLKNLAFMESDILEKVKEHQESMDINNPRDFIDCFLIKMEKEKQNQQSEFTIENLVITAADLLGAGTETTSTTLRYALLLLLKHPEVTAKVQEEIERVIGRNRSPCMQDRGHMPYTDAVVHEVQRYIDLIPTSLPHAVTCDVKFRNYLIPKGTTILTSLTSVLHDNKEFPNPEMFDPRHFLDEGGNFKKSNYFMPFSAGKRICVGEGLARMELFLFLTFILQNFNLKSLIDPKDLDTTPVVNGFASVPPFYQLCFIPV

CYP2A6 over CYP2D6 = test: Selectivity for CYP2A6 over CYP2D6; details: human
Cytochrome P450 2B6 = target: T1, Cytochrome P450 2B6 (Homo sapiens, UniProt P20813); test: Inhibition of human CYP2B6
T1 sequence (P20813 whole entry): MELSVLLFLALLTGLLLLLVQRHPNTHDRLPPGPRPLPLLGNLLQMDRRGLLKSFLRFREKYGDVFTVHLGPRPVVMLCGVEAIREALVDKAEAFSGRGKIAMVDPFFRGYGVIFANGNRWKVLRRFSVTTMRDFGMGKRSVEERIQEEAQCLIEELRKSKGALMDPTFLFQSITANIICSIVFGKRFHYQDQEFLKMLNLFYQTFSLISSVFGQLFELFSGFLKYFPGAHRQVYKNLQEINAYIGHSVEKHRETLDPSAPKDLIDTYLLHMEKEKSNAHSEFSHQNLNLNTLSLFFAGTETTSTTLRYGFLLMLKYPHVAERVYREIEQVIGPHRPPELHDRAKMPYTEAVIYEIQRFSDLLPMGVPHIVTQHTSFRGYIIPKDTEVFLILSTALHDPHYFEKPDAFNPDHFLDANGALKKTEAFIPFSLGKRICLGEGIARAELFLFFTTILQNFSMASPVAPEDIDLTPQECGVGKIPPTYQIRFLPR

Cytochrome P450 2A6 = target: T2, Cytochrome P450 2A6 (Homo sapiens, UniProt P11509); test: Inhibition of human CYP2A6
T2 sequence (P11509 whole entry): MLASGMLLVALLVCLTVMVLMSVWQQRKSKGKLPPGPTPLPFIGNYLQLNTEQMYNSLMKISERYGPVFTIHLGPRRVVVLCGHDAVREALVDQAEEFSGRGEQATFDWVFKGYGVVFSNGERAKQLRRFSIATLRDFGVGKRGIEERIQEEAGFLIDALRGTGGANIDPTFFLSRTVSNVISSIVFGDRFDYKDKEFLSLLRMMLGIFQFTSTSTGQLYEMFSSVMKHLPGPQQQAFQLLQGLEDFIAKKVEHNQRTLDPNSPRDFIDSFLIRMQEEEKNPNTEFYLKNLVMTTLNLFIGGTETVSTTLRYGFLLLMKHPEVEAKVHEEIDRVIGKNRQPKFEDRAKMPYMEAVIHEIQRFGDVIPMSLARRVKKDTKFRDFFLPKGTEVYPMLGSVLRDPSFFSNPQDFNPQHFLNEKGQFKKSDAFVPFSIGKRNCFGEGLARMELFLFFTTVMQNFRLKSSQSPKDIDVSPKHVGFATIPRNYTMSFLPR

Cytochrome P450 3A4 = Cytochrome P450 3A4 (Homo sapiens, UniProt P08684); test: Inhibition of human CYP3A4
Chain of Cytochrome P450 3A4 (P08684 whole entry): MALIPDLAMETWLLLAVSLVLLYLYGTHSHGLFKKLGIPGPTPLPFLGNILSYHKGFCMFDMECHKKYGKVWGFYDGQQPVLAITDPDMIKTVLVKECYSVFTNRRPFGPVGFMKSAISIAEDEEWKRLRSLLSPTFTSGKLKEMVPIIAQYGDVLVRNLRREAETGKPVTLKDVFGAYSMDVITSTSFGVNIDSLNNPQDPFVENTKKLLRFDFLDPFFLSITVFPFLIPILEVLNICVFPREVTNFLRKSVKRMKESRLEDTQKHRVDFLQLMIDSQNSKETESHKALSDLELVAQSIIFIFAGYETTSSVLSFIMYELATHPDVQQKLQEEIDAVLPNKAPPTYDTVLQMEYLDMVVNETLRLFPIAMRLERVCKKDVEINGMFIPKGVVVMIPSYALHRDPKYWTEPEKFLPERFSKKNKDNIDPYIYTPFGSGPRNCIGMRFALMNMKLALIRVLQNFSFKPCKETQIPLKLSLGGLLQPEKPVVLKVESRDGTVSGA

CYP2A6 over CYP2C19 = test: Selectivity for CYP2A6 over CYP2C19; details: human
Cytochrome P450 2D6 = Cytochrome P450 2D6 (Homo sapiens, UniProt P10635); test: Inhibition of human CYP2D6
Chain of Cytochrome P450 2D6 (P10635 whole entry): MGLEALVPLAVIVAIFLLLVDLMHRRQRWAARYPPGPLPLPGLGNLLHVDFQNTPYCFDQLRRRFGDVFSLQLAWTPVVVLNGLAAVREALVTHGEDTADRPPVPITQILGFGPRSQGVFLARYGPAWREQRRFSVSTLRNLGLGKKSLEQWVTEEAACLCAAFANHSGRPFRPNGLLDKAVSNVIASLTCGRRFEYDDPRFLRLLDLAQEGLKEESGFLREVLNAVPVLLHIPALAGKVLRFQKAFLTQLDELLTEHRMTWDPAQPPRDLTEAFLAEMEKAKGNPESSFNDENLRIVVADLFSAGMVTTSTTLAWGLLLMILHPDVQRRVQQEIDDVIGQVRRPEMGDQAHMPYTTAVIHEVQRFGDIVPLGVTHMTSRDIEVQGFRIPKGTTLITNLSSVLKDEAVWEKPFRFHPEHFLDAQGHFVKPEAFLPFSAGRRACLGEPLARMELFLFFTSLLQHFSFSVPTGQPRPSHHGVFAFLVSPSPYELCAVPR

Mus musculus = species: Mus musculus; test: as §1; details: microsomes

| Structure (SMILES) | selectivity ratio (CYP2A6 over CYP2C9) | half-life ([1]; liver microsomes) [h] | pKi (Cytochrome P450 2C9) | half-life ([2]; liver microsomes) [h] | selectivity ratio (CYP2A6 over CYP3A4) | pKi (Cytochrome P450 2E1) | selectivity ratio (CYP2A6 over CYP2B6) | selectivity ratio (CYP2A6 over CYP2E1) | pKi (Cytochrome P450 2C19) | selectivity ratio (CYP2A6 over CYP2D6) | pKi (Cytochrome P450 2B6) | pKi (Cytochrome P450 2A6) | pKi (Cytochrome P450 3A4) | selectivity ratio (CYP2A6 over CYP2C19) | pKi (Cytochrome P450 2D6) | half-life ([1]; microsomes) [h] | half-life ([2]; microsomes) [h] | Stability (Mus musculus) |
| --- | --- | --- | --- | --- | --- | --- | --- | --- | --- | --- | --- | --- | --- | --- | --- | --- | --- | --- |
| CNCC#Cc1cccnc1 | 2.3 | 2.05 | 5.20 | 2.27 | 92.8 | 3.93 | 22.2 | 43.1 | 4.79 | > 74 | 4.22 | 5.57 | 3.60 | 6.1 | < 3.40 |  |  |  |
| NCc1ccc(-c2cccnc2)o1 | 43 | 0.617 | 5.23 | 0.617 |  | 4.07 |  |  | 4.96 | 42 | 4.02 |  | 4.63 | 81 | 5.24 |  |  |  |
| c1cncc(-c2c[nH]cn2)c1 | 28 | 11.6 | 4.68 | 11.7 | 93 | 4.89 | 69 | 17 | 4.57 | 133 | 4.29 | 6.10 | 4.15 | 35 | 4.00 |  |  |  |
| Cc1ccsc1-c1cccnc1 |  | 0.683 |  | 0.533 |  |  |  |  |  |  |  |  |  |  |  |  |  |  |
| NCc1ccc(-c2ccccc2)o1 | 1.5 |  | 6.05 |  | 105 | 6.10 | 6.4 | 1.3 | 4.39 | 24.6 | 5.42 | 6.22 | 4.20 | 6.8 | 4.83 | 0.367 | 0.617 |  |
| CSCc1ccc(-c2cccnc2)o1 | 18 |  | 4.85 |  | 9.2 | 6.10 | 59 | 0.9 | 5.15 | 81 | 4.33 | 6.10 | 5.13 | 8.8 | 4.19 | 0.633 | 0.983 |  |
| NCc1ccc(-c2ccccc2)s1 | 0.8 |  | 6.30 |  | 159 | 7.40 | 1.1 | 0.1 | 6.05 | > 333 | 6.22 | 6.22 | 4.02 | 1.4 | < 3.40 | 0.683 | 1.4 |  |
| Cc1cscc1-c1ccccc1 | 33.9 |  | < 3.40 |  | > 400 | < 3.40 | 4.2 | 2.9 | < 3.40 | 60.6 | 5.29 | 5.21 | < 3.40 | 32.3 | < 3.40 | 0.617 | 1.23 |  |
| NCc1cc(-c2cccnc2)no1 | 39.1 | 6.42 | 4.84 | 6.68 | > 541 | 4.41 | 91.1 | 105 | 4.56 | > 541 | 4.47 | 6.40 | < 3.40 | 74.3 | < 3.40 |  |  |  |
| c1cncc(-c2cc[nH]n2)c1 | 13.4 | 1.55 | 3.76 | 1.65 | > 15.6 | 5.28 | 5.6 | 0.4 | 3.96 | 12.9 | 4.15 | 4.89 | < 3.40 | 8.5 | 3.78 |  |  |  |
| NCc1ccc(-c2cccnc2)s1 |  |  |  |  |  | 4.70 |  |  |  |  |  |  | 4.53 |  | 4.07 | 1 | 0.65 |  |
| CN(C)Cc1ccc(-c2cccnc2)o1 |  |  | 3.95 |  |  | < 3.40 |  |  | 4.10 |  | < 3.40 |  | 3.83 |  | 3.90 |  |  | Stable |
| NCc1cc(-c2cccnc2)n[nH]1 | 83.4 | 2.82 | 4.62 | 3.97 | > 690 | < 3.40 | 114 | > 690 | 4.38 | 103 | 4.48 | 6.52 | < 3.40 | 143 | 4.53 |  |  |  |
| c1ccc(-c2ccsc2)cc1 | > 32.3 | 1.53 | 3.95 | 5.25 | > 32.3 | 5.01 | 0.8 | > 32.3 | 3.97 | > 32.3 | 4.85 | 5.48 | < 3.40 | > 32.3 | < 3.40 |  |  |  |
| Cc1csc(-c2cccnc2)n1 | 12.6 |  | 4.29 |  | 5.6 | 5.02 | 10.6 | 2.3 | < 3.40 | > 32.3 | 4.36 | 5.39 | 4.64 | > 32.3 | < 3.40 | 0.817 | 0.6 |  |
